Data reported in ChEMBL document CHEMBL1201862, “PubChem BioAssay data set” (2004).
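Interpolation was linear, between the two tested concentrations surrounding the appropriate level; five concentrations were tested over 48 hours in 96-well plates. Abbreviation: GI50, concentration required for 50% inhibition of growth.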 Active and inactive are the calls of the source. No stated cut-off is given here; in the data, active = GI50 up to about 1.1 µM and inactive = higher.

Assays:
Assay in all cases: NCI-60 cell line screen, 48 h
NCI-H23 = system: NCI-H23
HCC 2998 = system: HCC 2998
EKVX = system: EKVX
COLO 205 = system: COLO 205
HOP-18 = system: HOP-18
UACC-62 = system: UACC-62
SF-295 = system: SF-295
SK-MEL-5 = system: SK-MEL-5
TK-10 = system: TK-10
SNB-75 = system: SNB-75
CCRF-CEM = system: CCRF-CEM
SF-268 = system: SF-268
IGROV-1 = system: IGROV-1
RPMI-8226 = system: RPMI-8226
UACC-257 = system: UACC-257
RXF 393 = system: RXF 393
HL-60 = system: HL-60
LOX IMVI = system: LOX IMVI
Hs-578T = system: Hs-578T
PC-3 = system: PC-3

Row | SMILES | GI50 (NCI-H23) | GI50 (HCC 2998) | GI50 (EKVX) | GI50 (COLO 205) | GI50 (HOP-18) | GI50 (UACC-62) | GI50 (SF-295) | GI50 (SK-MEL-5) | GI50 (TK-10) | GI50 (SNB-75) | GI50 (CCRF-CEM) | GI50 (SF-268) | GI50 (IGROV-1) | GI50 (RPMI-8226) | GI50 (UACC-257) | GI50 (RXF 393) | GI50 (HL-60) | GI50 (LOX IMVI) | GI50 (Hs-578T) | GI50 (PC-3)
1 | Cc1ccc(C)c2c1CCc1cc3ccccc3nc1-2 | > 100 µM (inactive) | > 100 µM (inactive) | > 100 µM (inactive) | > 100 µM (inactive) | 2.65 µM (inactive) | > 100 µM (inactive) | > 100 µM (inactive) | > 100 µM (inactive) | > 100 µM (inactive) | 98.6 µM (inactive) | > 100 µM (inactive) | > 100 µM (inactive) | > 100 µM (inactive) | > 100 µM (inactive) | > 100 µM (inactive) |  |  |  |  | 
2 | COc1ccc(C2=NC(C)(C)CO2)cc1 | > 100 µM (inactive) |  | > 100 µM (inactive) | > 100 µM (inactive) | > 100 µM (inactive) | > 100 µM (inactive) | > 100 µM (inactive) | > 100 µM (inactive) | > 100 µM (inactive) | > 100 µM (inactive) | > 100 µM (inactive) | > 100 µM (inactive) | > 100 µM (inactive) | > 100 µM (inactive) | > 100 µM (inactive) | > 100 µM (inactive) | > 100 µM (inactive) | 82.6 µM (inactive) |  | 
3 | CC1CC2CC(=O)CC3(C1)C2CCCN3CCCO (stereo not drawn) | > 100 µM (inactive) |  | > 100 µM (inactive) | > 100 µM (inactive) | > 100 µM (inactive) | > 100 µM (inactive) | > 100 µM (inactive) | > 100 µM (inactive) | > 100 µM (inactive) | > 100 µM (inactive) | > 100 µM (inactive) | > 100 µM (inactive) | > 100 µM (inactive) | > 100 µM (inactive) | > 100 µM (inactive) | > 100 µM (inactive) | > 100 µM (inactive) | > 100 µM (inactive) |  | 
4 | Nc1nc(SCCNC(=O)CCc2ccc(O)cc2)nc2c1ncn2C1OC(CO)C(O)C1O (stereo not drawn) | > 203 µM (inactive) | > 203 µM (inactive) |  | > 203 µM (inactive) | > 203 µM (inactive) | > 203 µM (inactive) | > 203 µM (inactive) | > 203 µM (inactive) | > 203 µM (inactive) | > 203 µM (inactive) | > 203 µM (inactive) | > 203 µM (inactive) | > 203 µM (inactive) | > 203 µM (inactive) | > 203 µM (inactive) |  | > 203 µM (inactive) | > 203 µM (inactive) |  | 
5 | COc1cc2ccnc(C#N)c2cc1OCc1ccccc1 | > 100 µM (inactive) | > 100 µM (inactive) | > 100 µM (inactive) |  | > 100 µM (inactive) |  | 32.1 µM (inactive) | > 100 µM (inactive) | > 100 µM (inactive) | 21.9 µM (inactive) | > 100 µM (inactive) | 39.2 µM (inactive) |  | > 100 µM (inactive) | > 100 µM (inactive) |  |  |  |  | 
6 | COC(=O)[C@H](C)[C@@H]1CC[C@](C)(CCC2=C(C)CCCC2(C)C)OO1 | > 25 µM (inactive) | > 25 µM (inactive) | > 25 µM (inactive) | > 25 µM (inactive) |  | > 25 µM (inactive) | > 25 µM (inactive) | > 25 µM (inactive) | > 25 µM (inactive) | > 25 µM (inactive) | 19.5 µM (inactive) | > 25 µM (inactive) | > 25 µM (inactive) | > 25 µM (inactive) | > 25 µM (inactive) | > 25 µM (inactive) | 12 µM (inactive) | 8.02 µM (inactive) | > 25 µM (inactive) | > 25 µM (inactive)
7 | CC[P+](C)(Cc1ccccc1)c1ccccc1.O=C(OC(C(=O)[O-])C(OC(=O)c1ccccc1)C(=O)O)c1ccccc1 (stereo not drawn) | > 100 µM (inactive) | > 100 µM (inactive) | > 100 µM (inactive) | > 100 µM (inactive) | 5.47 µM (inactive) | > 100 µM (inactive) | > 100 µM (inactive) |  | > 100 µM (inactive) | > 100 µM (inactive) |  | > 100 µM (inactive) | > 100 µM (inactive) | > 100 µM (inactive) | > 100 µM (inactive) | > 100 µM (inactive) |  | > 100 µM (inactive) |  | 
8 | O=C(c1ccccc1)c1nc2c(Cl)ccc(Cl)c2cc1C(Br)Br |  | 2.06 µM (inactive) |  | 3.19 µM (inactive) | 1.66 µM (inactive) | 1.25 µM (inactive) | 1.2 µM (inactive) | 1.34 µM (inactive) | 1.43 µM (inactive) | 0.668 µM (active) | 0.191 µM (active) | 1.41 µM (inactive) | 2.75 µM (inactive) | 0.284 µM (active) | 0.419 µM (active) | 2.34 µM (inactive) |  | 1.65 µM (inactive) |  | 
9 | CN(C)c1n/c(=N/Cc2ccncc2)ss1 | 17.5 µM (inactive) | > 52.6 µM (inactive) | > 71.9 µM (inactive) | 54.5 µM (inactive) |  | 30.2 µM (inactive) | > 90.8 µM (inactive) | > 10 µM (inactive) | > 66.2 µM (inactive) | 18.4 µM (inactive) | 13.6 µM (inactive) | 46.2 µM (inactive) | > 75.5 µM (inactive) | 21 µM (inactive) | > 39.7 µM (inactive) | 31.8 µM (inactive) | 4.39 µM (inactive) | 16.4 µM (inactive) | 23.6 µM (inactive) | 26.1 µM (inactive)
10 | CN(C)/C=N/c1cc(=O)n(C)c(=O)n1C | > 100 µM (inactive) | > 100 µM (inactive) | > 100 µM (inactive) | > 100 µM (inactive) |  | > 100 µM (inactive) | > 100 µM (inactive) | > 100 µM (inactive) | > 100 µM (inactive) | > 100 µM (inactive) | > 100 µM (inactive) | > 100 µM (inactive) | > 100 µM (inactive) | > 100 µM (inactive) | > 100 µM (inactive) | > 100 µM (inactive) | > 100 µM (inactive) | > 100 µM (inactive) | > 100 µM (inactive) | > 100 µM (inactive)
11 | Cc1ccc(C2SC(=N)Nc3c2c(C)nn3C(=O)c2ccc(Cl)cc2)cc1 (stereo not drawn) | > 10 µM (inactive) | > 10 µM (inactive) | > 10 µM (inactive) | > 10 µM (inactive) |  | > 10 µM (inactive) | > 10 µM (inactive) | > 10 µM (inactive) | > 10 µM (inactive) | > 10 µM (inactive) | > 10 µM (inactive) | > 10 µM (inactive) | > 10 µM (inactive) | > 10 µM (inactive) | > 10 µM (inactive) | > 10 µM (inactive) | > 10 µM (inactive) | > 10 µM (inactive) | > 10 µM (inactive) | > 10 µM (inactive)
12 | COC1/C=C/C(C)C(O)CC(O)/C=C/C(C)C(C(C)C(OC)C(C)CCC(=O)C(C)C(C/C=C/N(C)C=O)OC)OC(=O)/C=C/C=C(\C)CC(OC)CC2=CC(=O)O[C@@H](C(C)C(OC)C1)[C@H]2O (stereo partly drawn) | 0.011 µM (active) | < 0.005 µM (active) | 0.0298 µM (active) | 0.00513 µM (active) |  | 0.00665 µM (active) | < 0.005 µM (active) | < 0.005 µM (active) | 0.00542 µM (active) | < 0.005 µM (active) | 0.00687 µM (active) | 0.0233 µM (active) | 0.0113 µM (active) | 0.00783 µM (active) | 0.0103 µM (active) | < 0.005 µM (active) | < 0.005 µM (active) | < 0.005 µM (active) | 0.00879 µM (active) | < 0.005 µM (active)
13 | CC1(c2ccc(Cl)cc2)CC(c2ccc(Cl)cc2)=C(C#N)C(=C(C#N)C#N)N1 (stereo not drawn) | 17.3 µM (inactive) | 13.2 µM (inactive) | 17.9 µM (inactive) | 12.8 µM (inactive) |  | 15.3 µM (inactive) | 14.7 µM (inactive) | 13.9 µM (inactive) | 17.8 µM (inactive) | 19.4 µM (inactive) | 3.11 µM (inactive) | 7.83 µM (inactive) | 14.7 µM (inactive) | 8.77 µM (inactive) | 17.7 µM (inactive) | 13.1 µM (inactive) | 19.7 µM (inactive) | 17.3 µM (inactive) | 19.9 µM (inactive) | 16.4 µM (inactive)
14 | Cc1ccc(SC2=C(N(C)C)C(=O)c3ccccc3C2=O)cc1 | 1.82 µM (inactive) | 14 µM (inactive) | 6.71 µM (inactive) | 20.8 µM (inactive) |  | 4.35 µM (inactive) | 11.5 µM (inactive) | 2.31 µM (inactive) | 7.43 µM (inactive) | 12.1 µM (inactive) | 1.55 µM (inactive) | 4.76 µM (inactive) | 4.95 µM (inactive) | 2.54 µM (inactive) | 1.91 µM (inactive) | 6.15 µM (inactive) | 0.38 µM (active) | 3.35 µM (inactive) | 4.85 µM (inactive) | 4.11 µM (inactive)
15 | COC(=O)[C@@]12CN(C)[C@@H](C(C)(C)C)N1C(=O)OC2c1ccccc1 (stereo partly drawn) | > 100 µM (inactive) | > 100 µM (inactive) | > 100 µM (inactive) | > 100 µM (inactive) |  | > 100 µM (inactive) | > 100 µM (inactive) | > 100 µM (inactive) | > 100 µM (inactive) | > 100 µM (inactive) | > 100 µM (inactive) | > 100 µM (inactive) | > 100 µM (inactive) | > 100 µM (inactive) | > 100 µM (inactive) | > 100 µM (inactive) | > 100 µM (inactive) | > 100 µM (inactive) | > 100 µM (inactive) | > 100 µM (inactive)
16 | CCCCC(=O)OC[n+]1cccc(-c2c(COC(=O)NC(C)C)c(COC(=O)NC(C)C)c3n2CCC3)c1 | 26.2 µM (inactive) | > 100 µM (inactive) | > 100 µM (inactive) | 72.8 µM (inactive) |  | 20 µM (inactive) | 52.2 µM (inactive) | 35.6 µM (inactive) | 42.1 µM (inactive) | 50 µM (inactive) | 7.93 µM (inactive) | 24.8 µM (inactive) | 51.5 µM (inactive) | 30 µM (inactive) | 44.7 µM (inactive) | 22.9 µM (inactive) | 10.7 µM (inactive) | 21.7 µM (inactive) | > 50.6 µM (inactive) | 60.7 µM (inactive)
